Results from patent publication US20230392116A1, “METHOD FOR DIFFERENTIATING CORNEAL ENDOTHELIAL CELL-LIKE CELLS FROM PLURIPOTENT STEM CELLS” (StemSight Oy, priority 2020, published 2023).

System: human pluripotent stem cells (hPSC)
Test: Differentiation of human pluripotent stem cells (hPSC) into corneal endothelial cell (CEC)-like cells
Assay type: cell-based
Details: for emergence of NCC markers: SB431542 and CHIR99021 as differentiation induction agents; for time at which NCC markers appeared: culture medium with about 10 μM SB431542 and about 4 μM CHIR99021 together
Protocol: Embryonic (hESC) and induced pluripotent stem cells (iPSC) were used to generate CECs. Briefly, hPSCs were seeded on Laminin 521 (Biolamina) coated CellBind 6/12 well-plates (Corning) in 10 000-60 000 cell/cm 2 cell density. The cells were cultured in Essential 8 Flex medium (Thermo Fisher) for 24h. On day 1, Essential 8 flex medium was replaced with an induction medium supplemented with 10 μM SB431542 (Stemcell), 4 μM CHIR99021 (Stemcell) and 10 μM retinoic acid (RA, Sigma-Aldrich). Base of the induction medium consisted of KO-DMEM, 15% Knock-out serum replacement, 2 mM GlutaMax-I, 0.1 mM 2-mercaptoethanol (all from Thermo Fisher), 1% Non-essential Amino Acids, 50 U/ml Penicillin/Streptomycin. […] After day 9, CEC-like cells were formed, and harvested for analyses.
The hPSC-derived CECs were analyzed by immunocytochemistry. Briefly, the cells were fixed with 1 or 4% paraformaldehyde (PFA, Sigma-Aldrich) for 15 minutes. Next, the cells were permeabilized for 10 minutes with 0.1% Triton X-100 (Sigma-Aldrich) followed by blocking with 3% bovine serum albumin (BSA) for 1 hour. Then the cells were first incubated with 1:400 zona occludens-1 (ZO-1; Thermo Fisher), 1:200 alpha 1 sodium potassium ATPase (Na+/K+-ATPase, Abcam) and 1:400 CD166 (BD Biosciences) primary antibodies overnight at 4° C. The cells were next treated with 1:800 Donkey anti-Rabbit IgG Secondary Antibody, Alexa Fluor 488 (Thermo Fisher) against ZO-1; 1:800 Donkey anti-Mouse IgG Secondary Antibody, Alexa Fluor 568 (Thermo Fisher) against Na+/K+-ATPase and CD166; and 1:800 Donkey anti-Goat IgG Secondary Antibody, Alexa Fluor 568 (Thermo Fisher) against OCT-3/4. […] The images of mounted cells were captured using a fluorescence microscope (Olympus IX51; Olympus, Tokyo, Japan) and prepared using image editing software (Adobe Photoshop CC 2018; Adobe Systems) […]
Total RNA was extracted from undifferentiated hPSCs (d0), and from 3 time points during the time of hCEC induction (d3, d6 and d9) with Rneasy Minikit Plus (Qiagen). RNA concentration of each sample was determined using NanoDrop-1000 spectrophotometer (NanoDrop Technologies). […] The resulting cDNA samples were analyzed with qPCR using sequence-specific TaqMan Gene Expression Assays (Thermo Fisher) for OCT4 (Hs00999632_g1), PITX2 (Hs01553179_m1), AQP1 (Hs01028916_m1), SLC4A4 (Hs00186798_m1), and FOXC1 (Hs00559473_s1). […] Results were analyzed with the 7300 System SDS Software (Applied Biosystems) and Microsoft Excel. Based on the cycle threshold (CT) values given by the software, the relative quantification of each gene was calculated by applying the […] (Livak and Schmittgen, 2001). Results were normalized to GAPDH (Hs99999905_m1), with the undifferentiated hPSCs as the calibrator to determine the relative quantities of gene expression in each sample.

## Cc1c[nH]c(-c2cnc(NCCNc3ccc(C#N)cn3)nc2-c2ccc(Cl)cc2Cl)n1 [CHIR99021]
  emergence of NCC markers: contributed to emergence of NCC markers
  time at which NCC markers appeared: ~3 days

## NC(=O)c1ccc(-c2nc(-c3ccc4c(c3)OCO4)c(-c3ccccn3)[nH]2)cc1 [SB431542, 4-[4-(1,3-Benzodioxol-5-yl)-5-(2-pyridinyl)-1H-imidazol-2-yl]-benzamide]
  emergence of NCC markers: contributed to emergence of NCC markers
  time at which NCC markers appeared: ~3 days
